Experiment: Stability comparison for free base and salts: weight gain or loss on exposure to air in the laboratory
Type: physicochemical
Settings: for hygroscopicity (in words): handling, exposure to air
Procedure: To further characterize the stability of the free amine and salts of 2-amino-N-(2,2,2-trifluoroethyl)acetamide the following experiments were performed. Samples of the free amine and salts were exposed to air in the laboratory for a period of time. Weight […] or loss compared to the original sample was determined

sensitivity to air (in words)	% Weight gain (loss) (3 days in ambient atmosphere, parentheses = loss)	weight gain upon exposure to the ambient atmosphere (in words)	hygroscopicity (in words)	Structure (SMILES)
sensitive to air	4.65%	showed weight gain	hygroscopic	NCC(=O)NCC(F)(F)F [Free base, 2-amino-N-(2,2,2-trifluoroethyl)acetamide]
–	–	did not	not hygroscopic	Cl.NCC(=O)NCC(F)(F)F [Hydrochloride, 2-amino-N-(2,2,2-trifluoroethyl)acetamide hydrochloride]
